From paper PMC6934184, “Selective DNA-PKcs inhibition extends the therapeutic index of localized radiotherapy and chemotherapy” (The Journal of Clinical Investigation, 2019)

Target: T1, CLK2 (Homo sapiens, UniProt P49760)
T1 construct: purchased Thermo Fisher Scientific (Life Technologies) SelectScreen
Assay: SelectScreen Z'LYTE
Type: biochemical
Outline: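 Percent values come from Thermo SelectScreen profiling of NU5455, combining activity and binding assays. CSF1R was run in Z'LYTE format at Km app ATP, and CAMK1 in Adapta format with ATP listed at 10.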

T1 sequence (P49760 whole entry): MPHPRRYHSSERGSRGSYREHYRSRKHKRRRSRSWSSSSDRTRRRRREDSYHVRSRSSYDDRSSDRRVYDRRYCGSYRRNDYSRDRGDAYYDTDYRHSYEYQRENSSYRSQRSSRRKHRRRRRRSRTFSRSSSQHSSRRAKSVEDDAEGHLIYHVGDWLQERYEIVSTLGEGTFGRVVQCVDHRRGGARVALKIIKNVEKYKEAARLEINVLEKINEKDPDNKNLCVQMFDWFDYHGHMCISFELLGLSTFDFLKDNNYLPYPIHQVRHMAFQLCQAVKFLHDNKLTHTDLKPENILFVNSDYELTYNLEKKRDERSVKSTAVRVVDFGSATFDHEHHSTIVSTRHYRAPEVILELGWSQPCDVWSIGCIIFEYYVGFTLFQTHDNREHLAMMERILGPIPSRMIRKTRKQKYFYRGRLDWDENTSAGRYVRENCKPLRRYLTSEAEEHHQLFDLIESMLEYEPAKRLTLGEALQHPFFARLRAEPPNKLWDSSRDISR

CN(C(=O)CN1CCOCC1)c1ccc2sc3c(-c4cccc5c(=O)cc(N6CC7CCC(C6)O7)oc45)cccc3c2c1 [NU5455]
inhibition at 1 µM: 4.1%
